Laboratory results published in patent publication US20080194619A1, “Anti-Hiv Quinuclidine Compounds” (priority 2004, published 2008).
Read-outs that look alike come from different tables or passages of the source.

Tests used:
HIV-1 IIIB = test: GenPhar AV-Finder-HIV Drug Discovery Assay, HIV-1 IIIB replication in HeLa indicator cells; type: cell-based; settings: for IC50: read-out: IC50 of HIV replication inhibition
From the text: In order to study the viral replication in vitro, the GenPhar AV-Finder™-HIV Drug Discovery Assay was used, a novel technology that consists of two components: (1) a cloned, continuous-passage HeLa cell line containing an HIV-1 tat-activated molecular switch and a Green Fluorescent Protein reporter gene and (2) a recombinant adenovirus (rAd) vector containing the genes for all three of the HIV-1 receptor/co-receptors (CD4, CXCR4, and CCR5) to transduce into HeLa cells and convert them into highly susceptible HIV-1 indicator cells for use in the assay. The indicator cells over-express the HIV-1 receptor genes and are readily infected with any HIV-1 strain or isolate. […] Infected cells fluoresce brightly so that the inhibition of virus replication by potential antiviral drugs can be readily detected and quantified using standard laboratory plate reader technology.
(§1) Detector plates are set up at day 1 by adding HeLa cells (3000/well) to the adenovirus AD-3R in DMEM containing CCS in 96-well plates and incubated at 37° C. under 95% humidity and 5% CO2 for 2 days. […] At day 4, the medium was replaced by fresh medium containing the corresponding concentration of the compounds of interest. The infectivity was assessed by measuring the fluorescence on each well at day 7 ([…]). […] At day 5, the medium was replaced by fresh medium containing the corresponding concentration of compounds of interest and the infectivity was assessed by measuring the fluorescence on each well at day 8. Results are expressed as percentage of inhibition of the viral replication.
(4-amino-phenyl)-(1-aza-bicyclo[2.2.2]oct-4-yl)-methanone (FIG. 1) was used either alone dissolved in water (SP003) or in an aqueous formulation (SP003A) containing zinc sulfate heptahydrate and ascorbic acid at the ratio of 26.6/1/1.6 (for example 200 mg SP003 with 7.5 mg of zinc sulfate heptahydrate and 12.5 mg of ascorbic acid; Xu, J. et al., J. Pharmacol. Exper. Ther., (2003) 307:1148-1157.

HIV MDR 769 strain = test: AV-Finder-HIV assay, multi-drug resistant HIV MDR 769 strain replication in HeLa cells; type: cell-based
From the text: In order to study the viral replication in vitro, the GenPhar AV-Finder™-HIV Drug Discovery Assay was used, a novel technology that consists of two components: (1) a cloned, continuous-passage HeLa cell line containing an HIV-1 tat-activated molecular switch and a Green Fluorescent Protein reporter gene and (2) a recombinant adenovirus (rAd) vector containing the genes for all three of the HIV-1 receptor/co-receptors (CD4, CXCR4, and CCR5) to transduce into HeLa cells and convert them into highly susceptible HIV-1 indicator cells for use in the assay. The indicator cells over-express the HIV-1 receptor genes and are readily infected with any HIV-1 strain or isolate. All HIV-1 strains tested thus far, regardless of co-receptor preference, and all subtypes or classes of HIV-1 will infect these indicator cells. Infected cells fluoresce brightly so that the inhibition of virus replication by potential antiviral drugs can be readily detected and quantified using standard laboratory plate reader technology.
as §1

HeLa cells = test: MTT cytotoxicity assay (mitochondrial integrity)
Procedure: Following the above described cell treatment protocol, the levels of cellular 3-(4,5-dimehtylthiazol-2-yl)-2,5-diphenyl tetrazolium bromide (MTT) reduction, a measure of mitochondrial integrity, were determined in order to examine whether the compounds tested were cytotoxic.

For `Cc1cn([C@H]2C[C@H](N=[N+]=[N-])[C@@H](CO)O2)c(=O)[nH]c1=O` [AZT, reference compound], which “curve plateau, inhibition of viral replication” value (HIV-1 IIIB; 24 hours pre-medication) is on record?
The value was “around 40%”.

What about the IC50 (HIV-1 IIIB; 48 hours pretreatment, FIG. 4) of the same compound?
The IC50 was 30 nM.

And the “inhibition of HIV MDR 769 strain replication (in words)” value (HIV MDR 769 strain; without pre-medication, FIG. 5)?
The value was “not effective”.

And the IC50 (HeLa cells; read-out: toxicity IC50 (MTT cytotoxicity assay))?
Its IC50 is 161000 nM.

For `Nc1ccc(C(=O)C23CCN(CC2)CC3)cc1` [SP003, (4-Amino-phenyl)-(1-aza-bicyclo[2.2.2]oct-4-yl)-methanone], which “inhibition of HIV replication” value (HIV-1 IIIB; 48 hours pretreatment, FIG. 4) is on record?
The value was 50%.

What about the IC50 (HIV-1 IIIB; Human immunodeficiency virus 1, IIIB, HeLa, 48 hours pretreatment, FIG. 4) of the same compound?
The IC50 was 0.03 nM.

What about the “inhibition of HIV-1 IIIB viral replication (in words)” value (HIV-1 IIIB; no pre-medication, HeLa cells, FIG. 2) of the same compound?
Its value is “higher efficiency than the classical antiviral agent ddI”.

And the “inhibition of HIV-1 IIIB replication” value (HIV-1 IIIB; no pre-medication, concentrations in the nanomolar range)?
Its value is “up to 50%”.

And the IC50 (HIV MDR 769 strain; Human immunodeficiency virus 1, HeLa, read-out: IC50 of HIV MDR 769 viral replication inhibition)?
The IC50 was 0.01 nM.

And the “inhibition of HIV MDR 769 viral replication” value (HIV MDR 769 strain; without pre-medication, FIG. 5)?
The value was 60%.

What about the “cell toxicity (MTT cytotoxicity assay)” value (HeLa cells; all concentrations tested, up to 100 μM) of the same compound?
Its value is “devoid of cell toxicity”.

`O=c1[nH]cnc2c1ncn2[C@H]1CC[C@@H](CO)O1` [ddI] was tested. Which IC50 (HeLa cells) did it give?
The IC50 was 89000 nM.
